Experimental data reported in patent EP1175467B1, “STABILIZED ADHESIVE COMPOSITIONS CONTAINING HIGHLY SOLUBLE, RED-SHIFTED, PHOTOSTABLE BENZOTRIAZOLE UV ABSORBERS AND LAMINATED ARTICLES DERIVED THEREFROM” (Ciba Specialty Chemicals Holding Inc., priority 1999, dated 2000).

Assay: Benzotriazole solubility in adhesive GELVA 263 (observed crystallization after solvent evaporation)
Conditions: in GELVA 263 polyacrylate adhesive; approximate maximum concentration, weight of total benzotriazole added to GELVA 263 as is
Protocol: To measure this solubility a number of structurally different benzotriazoles are added to a typical adhesive GELVA® 263 (Solutia) which is a 44.5% solution of a polyacrylate in a mixture of ethyl acetate and hexane. The polyacrylate is a copolymer of methyl methacrylate, 2-ethylhexyl methacrylate and glycidyl methacrylate.
The test benzotriazole is dissolved in 5 mL of ethyl acetate, toluene or a mixture of ethyl acetate and toluene. To the solution is added 5 g of GELVA® 263 and 2-3 mL of the resulting solution is placed into individual watch glasses. Solubility is then evaluated based upon observed crystallization once the solvent has evaporated. Observations start after several hours and then continue over a period of several weeks.
Solubilities are reported in weight of total benzotriazole added to GELVA® 263 as is.
Following the procedure of Example 3, the solubility in GELVA® 263 (Solutia) of various mixtures of benzotriazoles is determined. […]
The test compound is dissolved in 5 mL of ethyl acetate, toluene or a mixture of ethyl acetate and toluene. […] Solubility is then evaluated based upon observed crystallization once the solvent has evaporated. […]

Solubility without Crystallization (%)	SMILES
8.0	COC(=O)C[S+]([O-])c1ccc2nn(-c3cc(C(C)(C)C)cc(C(C)(C)C)c3O)nc2c1 (centres unmarked) [J, 5-methoxycarbonylmethylsulfinyl-2-(2-hydroxy-3,5-di-tert-butylphenyl)-2H-benzotriazole]
11.3	COC(=O)CCc1cc(-n2nc3ccc(S(=O)(=O)c4ccccc4)cc3n2)c(O)c(C(C)(C)C)c1 [K, methyl 3-(5-phenylsulfonyl-2H-benzotriazol-2-yl)-5-tert-butyl-4-hydroxyhydrocinnamate]
